Results: publication PMC10120462, “Styrylquinazoline derivatives as ABL inhibitors selective for different DFG orientations” (Journal of Enzyme Inhibition and Medicinal Chemistry, 2023)

Columns and labels:
K562 cells = assay: Cell cycle assay (Muse Cell-Cycle Kit, flow cytometry); assay type: cell-based, human; details: 16 h, concentration not given; control 28.68%
Description: The interesting inhibitory potential of ABL kinase and the high antiproliferative activity of several styrylquinazoline derivatives prompted us to further investigate their mechanism of action.
K562 cells were seeded in 3 cm Petri dishes (Nunc) at a density of 150,000 cells per well and incubated under standard conditions at 37 °C for 24 h. […] After 16 h of treatment, assays were performed using a Muse Cell-Cycle Kit (Millipore) according to the supplier’s instructions. Briefly, leukaemia cells were collected, washed in cold PBS, and centrifuged. Cells were then fixed in ice-cold 70% ethanol and stored at −20 °C overnight. The next day, leukaemia cells were washed with cold PBS, centrifuged and resuspended in Muse™ Cell Cycle Reagent. Samples were incubated for 30 min at room temperature in the dark. After staining, the levels of cellular subpopulations in each cell cycle phase were determined using a Muse Cell Analyser (Millipore). Experiments were performed at least four times.

Src = target: T1, Src (Homo sapiens, UniProt P12931); assay: Tyrosine kinase assay (Kinase Selectivity System TK-2, ADP-Glo); assay type: biochemical; details: 1 h incubation, mean ± SD of four experiments
T1 construct: purchased Promega
T1 sequence (P12931 whole entry): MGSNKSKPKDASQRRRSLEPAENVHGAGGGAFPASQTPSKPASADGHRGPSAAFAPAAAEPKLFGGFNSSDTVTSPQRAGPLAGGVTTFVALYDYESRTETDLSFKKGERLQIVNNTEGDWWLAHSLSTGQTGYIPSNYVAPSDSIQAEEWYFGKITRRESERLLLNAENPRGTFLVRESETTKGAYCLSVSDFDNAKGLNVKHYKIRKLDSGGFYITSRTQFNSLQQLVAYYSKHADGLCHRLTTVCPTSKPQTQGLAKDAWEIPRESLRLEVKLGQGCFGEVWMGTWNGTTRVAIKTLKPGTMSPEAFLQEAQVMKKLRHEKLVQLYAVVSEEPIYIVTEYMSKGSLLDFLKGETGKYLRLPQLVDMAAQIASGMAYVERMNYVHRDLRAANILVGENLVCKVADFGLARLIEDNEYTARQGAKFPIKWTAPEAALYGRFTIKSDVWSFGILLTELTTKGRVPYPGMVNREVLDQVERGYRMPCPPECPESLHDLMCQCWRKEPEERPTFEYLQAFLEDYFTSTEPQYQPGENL

Fyn A = target: T2, Fyn A (Homo sapiens, UniProt P06241); assay: as above; assay type: biochemical; details: 1 h incubation, mean ± SD of four experiments
T2 construct: purchased Promega
T2 sequence (P06241 whole entry): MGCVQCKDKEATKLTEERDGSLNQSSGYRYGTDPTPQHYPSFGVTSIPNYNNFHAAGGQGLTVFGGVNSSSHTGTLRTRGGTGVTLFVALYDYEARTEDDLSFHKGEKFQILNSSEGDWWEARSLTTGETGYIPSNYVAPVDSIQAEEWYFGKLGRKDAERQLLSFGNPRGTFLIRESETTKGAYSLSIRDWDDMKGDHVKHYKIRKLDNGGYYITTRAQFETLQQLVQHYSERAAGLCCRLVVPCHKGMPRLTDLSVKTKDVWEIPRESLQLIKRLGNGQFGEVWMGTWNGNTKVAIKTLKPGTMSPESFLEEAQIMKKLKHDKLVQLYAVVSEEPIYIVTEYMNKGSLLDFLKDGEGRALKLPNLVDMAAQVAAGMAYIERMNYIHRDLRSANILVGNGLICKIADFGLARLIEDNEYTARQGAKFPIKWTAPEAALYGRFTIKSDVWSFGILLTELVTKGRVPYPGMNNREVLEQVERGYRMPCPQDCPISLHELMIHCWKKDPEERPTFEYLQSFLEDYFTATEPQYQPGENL
Excerpt: All newly synthesised derivatives were screened for their inhibitory potential towards eight non-receptor tyrosine kinases, such as ABL, BTK, BRK and Src family kinases, such as CSK, Lyn, Lck, Fyn and Src. […] To facilitate the analysis of the structure and enzymatic activity, all tested compounds were divided into four subgroups based on the main structural scaffolds (the general structure of each group is shown in the second column of Table 1). Series A, B, and C were subdivided according to the S^4-aryl substituent, while D represents the different styryl groups at the C^2-quinazoline position.
Herein, we used a kinase assay that contained fully expressed kinases with their regulatory domains, which are responsible for autoinhibition. The proteins are present in their unphosphorylated form and the procedure required supplementation with ATP. Importantly, autophosphorylation of ABL is dependent on […] concentration of the protein. Thus, our experimental conditions reflect the cellular process to be simulated. The luminescence signal detected after one hour of incubation with a peptide substrate was a measure of inhibition. Under these conditions, the question of whether the inhibitors tested bind to the ortho or allosteric site of the protein could be answered. […] To test this hypothesis, further molecular docking experiments were performed to more precisely determine the binding of the tested compounds to the ABL kinase.
To determine the inhibition of non-receptor tyrosine kinases, assays were performed using the kinase selectivity system TK-2 and the ADP-Glo Kinase Assay (both from Promega). The protocol was previously developed by our group and described in reports[12]^,[36]. Experiments were performed at least four times. Data are expressed as percentage of tyrosine kinase inhibitory activity after treatment with the derivatives tested.

BRK = target: T3, BRK (Homo sapiens, UniProt Q13882); assay: as above; assay type: biochemical; details: 1 h incubation, mean ± SD of four experiments
T3 construct: purchased Promega
T3 sequence (Q13882 whole entry): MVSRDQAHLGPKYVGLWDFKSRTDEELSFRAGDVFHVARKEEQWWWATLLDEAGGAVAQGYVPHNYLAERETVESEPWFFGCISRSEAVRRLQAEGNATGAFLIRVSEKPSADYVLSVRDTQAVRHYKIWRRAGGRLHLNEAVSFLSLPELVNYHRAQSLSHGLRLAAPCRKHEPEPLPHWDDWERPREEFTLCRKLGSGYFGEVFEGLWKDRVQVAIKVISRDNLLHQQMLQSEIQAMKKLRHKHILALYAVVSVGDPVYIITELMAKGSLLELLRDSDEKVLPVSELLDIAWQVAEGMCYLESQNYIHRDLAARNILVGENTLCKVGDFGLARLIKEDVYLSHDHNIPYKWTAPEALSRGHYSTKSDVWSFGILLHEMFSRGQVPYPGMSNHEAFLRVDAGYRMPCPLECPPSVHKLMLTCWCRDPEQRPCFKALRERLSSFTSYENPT

CSK = target: T4, CSK (Homo sapiens, UniProt P41240); assay: as above; assay type: biochemical; details: 1 h incubation, mean ± SD of four experiments
T4 construct: purchased Promega
T4 sequence (P41240 whole entry): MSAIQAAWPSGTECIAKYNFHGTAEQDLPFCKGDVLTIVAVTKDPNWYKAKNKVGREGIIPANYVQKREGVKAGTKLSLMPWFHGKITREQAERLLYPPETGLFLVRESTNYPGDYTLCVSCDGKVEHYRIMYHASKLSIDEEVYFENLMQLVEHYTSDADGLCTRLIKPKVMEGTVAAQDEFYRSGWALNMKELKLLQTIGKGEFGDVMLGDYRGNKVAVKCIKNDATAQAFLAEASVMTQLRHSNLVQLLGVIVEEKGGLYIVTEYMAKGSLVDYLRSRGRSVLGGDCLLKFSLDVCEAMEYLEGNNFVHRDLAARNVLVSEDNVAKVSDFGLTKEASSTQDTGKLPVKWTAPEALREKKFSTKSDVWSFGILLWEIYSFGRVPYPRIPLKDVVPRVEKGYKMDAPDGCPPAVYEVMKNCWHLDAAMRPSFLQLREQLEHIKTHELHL

Lyn B = target: T5, Lyn B (Homo sapiens, UniProt P07948); assay: as above; assay type: biochemical; details: 1 h incubation, mean ± SD of four experiments
T5 construct: purchased Promega
T5 sequence (P07948 1-491 isoform P07948-2): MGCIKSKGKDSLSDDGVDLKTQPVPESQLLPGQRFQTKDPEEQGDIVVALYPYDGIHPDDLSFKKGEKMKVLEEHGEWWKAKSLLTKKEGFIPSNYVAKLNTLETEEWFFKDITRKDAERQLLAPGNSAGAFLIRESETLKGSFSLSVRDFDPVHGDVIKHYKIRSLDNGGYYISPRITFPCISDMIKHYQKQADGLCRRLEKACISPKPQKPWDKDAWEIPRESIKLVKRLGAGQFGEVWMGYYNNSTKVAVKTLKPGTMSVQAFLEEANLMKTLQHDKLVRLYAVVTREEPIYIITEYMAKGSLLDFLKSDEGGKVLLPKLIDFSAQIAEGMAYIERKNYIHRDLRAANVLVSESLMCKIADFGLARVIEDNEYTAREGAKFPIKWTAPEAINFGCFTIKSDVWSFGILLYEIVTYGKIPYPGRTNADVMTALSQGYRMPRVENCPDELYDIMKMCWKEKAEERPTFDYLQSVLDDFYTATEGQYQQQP

NHDF = assay: Cytotoxicity studies (MTS), normal fibroblasts; assay type: cell-based; details: 72 h, normal human fibroblasts, read-out: Antiproliferative activity IC50 NHDF
Excerpt: (§1) In contrast, the other cell lines studied represent common cancers found in the human population. Nevertheless, these cell lines are characterised by a different landscape of kinase expression, as reported in[36]. In chronic leukaemia cells, an aberration of the Philadelphia chromosome is common in which a fragment of chromosome 9 is displaced to chromosome 22, leading to the formation of the oncogenic protein BCR-ABL. The altered structure of the protein leads to abnormal activity that promotes excessive growth and differentiation of cells even in the absence of growth factors, as well as inhibition of apoptosis and formation of metastases. Moreover, the status of the TP53 gene in leukaemia is not insignificant. Mutations of the TP53 gene occur in more than 50% of all cancers, leading to increased metastasis and an overall poor prognosis[38]^,[39]. The p53 protein encoded by this gene plays a pivotal role in controlling cell division or cell fate when damage is detected. […] Therefore, interaction between the signalling network of the BCR-ABL pathway and p53 often results in an impairment of p53 function and survival[43]^,[44]. […] Selectivity studies were performed on normal human fibroblast – NHDF cell line.
(§2) M. Rusin from the Maria Sklodowska-Curie Memorial Cancer Centre and Institute of Oncology in Gliwice, Poland. […] G. Kramer-Marek from the Institute of Cancer Research in London, United Kingdom. The human suspension chronic myeloids leukaemia cell line K562 and the pancreatic ductal adenocarcinoma cell line PANC-1 were purchased from Merck. The normal human dermal fibroblasts cell line NHDF were obtained from PromoCell. All adherent cancer cell lines were cultured in Dulbecco’s Modified Eagle’s medium (DMEM) supplemented with 10% heat-inactivated foetal bovine serum – FBS (all from Merck). […] Each complete medium contained a mixture of two antibiotics - penicillin and streptomycin (1% v/v; Gibco). Cell lines were cultured at 37 °C with 5% CO2 humidified atmosphere.
(§3) The assay was carried out after 72 h of incubation with different concentrations of the tested compounds. Then DMEM without phenol red was added to each well with CellTiter 96®AQueous One Solution-MTS (Promega) solution and incubated for 1 h or 3 h (PANC-1) at 37 °C. The optical densities of the samples were measured at 490 nm using a multi-plate reader (Synergy 4, BioTek). […] Each compound was tested in triplicate in a single experiment and each experiment was performed three or four times.

Lck = target: T6, Lck (Homo sapiens, UniProt P06239); assay: Tyrosine kinase assay (Kinase Selectivity System TK-2, ADP-Glo); assay type: biochemical; details: 1 h incubation, mean ± SD of four experiments
T6 construct: purchased Promega
T6 sequence (P06239 whole entry): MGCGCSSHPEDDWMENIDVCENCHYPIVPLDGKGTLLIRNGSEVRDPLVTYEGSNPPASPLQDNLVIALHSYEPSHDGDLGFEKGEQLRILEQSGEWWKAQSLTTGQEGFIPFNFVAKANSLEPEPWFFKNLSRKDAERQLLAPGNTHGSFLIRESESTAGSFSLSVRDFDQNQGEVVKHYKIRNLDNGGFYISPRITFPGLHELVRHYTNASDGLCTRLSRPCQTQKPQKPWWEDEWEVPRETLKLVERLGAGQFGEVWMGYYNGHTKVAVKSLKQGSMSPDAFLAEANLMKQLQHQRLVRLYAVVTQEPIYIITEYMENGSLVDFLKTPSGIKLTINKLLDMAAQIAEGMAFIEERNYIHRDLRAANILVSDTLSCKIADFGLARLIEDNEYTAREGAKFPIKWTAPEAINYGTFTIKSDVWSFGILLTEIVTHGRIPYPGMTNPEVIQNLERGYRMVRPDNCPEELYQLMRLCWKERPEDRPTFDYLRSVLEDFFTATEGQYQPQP

ABL = target: T7, ABL (Homo sapiens, UniProt P00519); assay: as above; assay type: biochemical; details: 1 h incubation, mean ± SD of four experiments; for Inhibition of tyrosine kinase activity [%] ABL: 0.5 μM
T7 construct: purchased Promega
T7 sequence (P00519 whole entry): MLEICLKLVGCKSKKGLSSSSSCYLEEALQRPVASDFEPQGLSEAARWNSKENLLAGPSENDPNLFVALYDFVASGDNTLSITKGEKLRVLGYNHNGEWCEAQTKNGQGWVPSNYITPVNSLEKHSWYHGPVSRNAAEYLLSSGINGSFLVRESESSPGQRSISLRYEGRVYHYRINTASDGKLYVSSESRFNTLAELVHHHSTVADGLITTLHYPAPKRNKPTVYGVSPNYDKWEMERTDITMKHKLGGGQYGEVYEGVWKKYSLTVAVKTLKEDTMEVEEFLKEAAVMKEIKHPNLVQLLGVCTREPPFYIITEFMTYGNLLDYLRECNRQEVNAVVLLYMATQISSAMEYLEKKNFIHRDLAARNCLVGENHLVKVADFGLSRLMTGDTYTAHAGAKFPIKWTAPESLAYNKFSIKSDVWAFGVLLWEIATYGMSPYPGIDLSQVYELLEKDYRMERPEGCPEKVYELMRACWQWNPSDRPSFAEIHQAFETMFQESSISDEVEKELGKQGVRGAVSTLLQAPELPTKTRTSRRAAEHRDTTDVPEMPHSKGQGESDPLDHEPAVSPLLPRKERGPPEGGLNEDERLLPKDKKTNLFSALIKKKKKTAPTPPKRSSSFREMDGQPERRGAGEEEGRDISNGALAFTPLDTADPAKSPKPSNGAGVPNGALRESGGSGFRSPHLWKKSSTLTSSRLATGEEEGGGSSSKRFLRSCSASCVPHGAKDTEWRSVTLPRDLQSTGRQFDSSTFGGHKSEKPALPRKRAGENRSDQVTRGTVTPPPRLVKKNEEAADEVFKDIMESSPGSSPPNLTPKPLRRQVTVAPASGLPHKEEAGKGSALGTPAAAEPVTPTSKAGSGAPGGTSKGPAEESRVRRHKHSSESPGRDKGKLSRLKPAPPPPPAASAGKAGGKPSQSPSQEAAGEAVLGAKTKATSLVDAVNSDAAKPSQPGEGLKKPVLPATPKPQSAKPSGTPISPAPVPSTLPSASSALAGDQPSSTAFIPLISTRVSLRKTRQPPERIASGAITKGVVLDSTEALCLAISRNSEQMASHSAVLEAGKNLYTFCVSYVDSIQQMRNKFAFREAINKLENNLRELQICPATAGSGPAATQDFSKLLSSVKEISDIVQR

BTK = target: T8, BTK (Homo sapiens, UniProt Q06187); assay: as above; assay type: biochemical; details: 1 h incubation, mean ± SD of four experiments
T8 construct: purchased Promega
T8 sequence (Q06187 whole entry): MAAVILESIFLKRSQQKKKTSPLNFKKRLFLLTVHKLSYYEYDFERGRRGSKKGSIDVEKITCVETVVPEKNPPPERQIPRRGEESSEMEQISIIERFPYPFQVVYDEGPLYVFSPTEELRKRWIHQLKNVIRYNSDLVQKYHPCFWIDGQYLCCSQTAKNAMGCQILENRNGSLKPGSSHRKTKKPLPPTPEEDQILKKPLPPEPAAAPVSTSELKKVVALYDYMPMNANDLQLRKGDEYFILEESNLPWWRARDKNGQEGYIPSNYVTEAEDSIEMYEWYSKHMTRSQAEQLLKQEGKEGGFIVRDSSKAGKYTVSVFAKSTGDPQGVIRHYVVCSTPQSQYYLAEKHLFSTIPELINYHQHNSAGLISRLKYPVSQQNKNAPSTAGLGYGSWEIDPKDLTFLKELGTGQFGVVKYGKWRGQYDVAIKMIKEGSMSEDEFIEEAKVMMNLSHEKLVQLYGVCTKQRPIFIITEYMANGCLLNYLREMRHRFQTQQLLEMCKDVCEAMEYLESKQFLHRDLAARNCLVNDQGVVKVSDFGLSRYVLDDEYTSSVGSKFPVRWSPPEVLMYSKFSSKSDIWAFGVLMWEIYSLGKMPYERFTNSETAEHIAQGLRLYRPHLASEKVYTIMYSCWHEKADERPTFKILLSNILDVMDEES

PANC-1 = assay: Cytotoxicity studies (MTS), antiproliferative activity; assay type: cell-based, human; details: Homo sapiens, PANC-1; 72 h, MTS
Excerpt: as §1, §2, §3

HCT 116 p53+/+ = assay: as above; assay type: cell-based, human; details: for IC50: Homo sapiens, HCT-116, 72 h, MTS
Excerpt: as §1, §2, §3

K562 = assay: as above; assay type: cell-based, human; details: for IC50: Homo sapiens, K562, 72 h, MTS
Excerpt: as §1, §2, §3

U-251 = assay: as above; assay type: cell-based, human; details: for IC50: Homo sapiens, U-251, 72 h, MTS
Excerpt: as §1, §2, §3

HCT 116 p53−/− = assay: as above; assay type: cell-based, human; details: Homo sapiens, HCT-116; 72 h, MTS
Excerpt: as §1, §2, §3

A549 = assay: as above; assay type: cell-based, human; details: for IC50: Homo sapiens, A549, 72 h, MTS
Excerpt: as §1, §2, §3

MCF-7 = assay: as above; assay type: cell-based, human; details: for IC50: Homo sapiens, MCF7, 72 h, MTS
Excerpt: as §1, §2, §3

SMILES	inhibition at 0.5 µM (Src) [%]	inhibition at 0.5 µM (Fyn A) [%]	inhibition at 0.5 µM (BRK) [%]	inhibition at 0.5 µM (CSK) [%]	inhibition at 0.5 µM (Lyn B) [%]	IC50 (NHDF) [µM]	inhibition at 0.5 µM (Lck) [%]	inhibition at 0.5 µM (ABL) [%]	inhibition at 0.5 µM (BTK) [%]	IC50 (PANC-1) [µM]	IC50 (HCT 116 p53+/+) [µM]	IC50 (K562) [µM]	IC50 (U-251) [µM]	IC50 (HCT 116 p53−/−) [µM]	IC50 (A549) [µM]	other results
CNC(=O)c1ccccc1Sc1ccc2c(/C=C/c3ccccn3)n[nH]c2c1 [Axitinib, axitinib, reference compound]	10.8 ± 1.95	43.8 ± 2.96	0	11.4 ± 3.89	39 ± 9.95											Fraction of cells in the G2/M phase (K562 cells): 47.28%
COc1ccccc1/C=C/c1nc(Sc2ccccc2Br)c2ccccc2n1 [IS4, 2-[(E)-2–(2-methoxyphenyl)ethenyl]-4–(2-bromophenylthio)quinazoline]	18.5 ± 1.07	34.1 ± 2.53	0	17.4 ± 6.31	3.39 ± 0.47	> 25	0	29.8 ± 0.95	45.9 ± 7.54	> 25	> 10	> 15	> 15	> 10	> 15	Inhibition of tyrosine kinase activity [%] BTK (BTK; 0.5 μM): moderate activity
COc1ccc(/C=C/c2nc(Sc3ccccc3Cl)c3ccccc3n2)c(OC)c1 [IS16, 2-[(E)-2–(2,4-dimethoxyphenyl)ethenyl]-4–(2-chlorophenylthio)quinazoline]	0	50.1 ± 3.49	0	15.5 ± 2.88	0	14.6 ± 1.27	48.1 ± 6.55	35.6 ± 1.5	13.1 ± 2.69	> 2.5	> 15	7.83 ± 0.753	20.9 ± 1.63	> 10	13.4 ± 0.6	IC50 (MCF-7): > 25 µM; Selectivity index MCF-7 (MCF-7; versus NHDF): 1.00; Selectivity index HCT 116 p53+/+ (HCT 116 p53+/+; versus NHDF): 1.67; Selectivity index K562 (K562; versus NHDF): 3.20; Selectivity index U-251 (U-251; versus NHDF): 1.20; Selectivity index A549 (A549; versus NHDF): 1.86
COc1cccc(Sc2nc(/C=C/c3ccccc3OC)nc3ccccc23)c1 [IS7, 2-[(E)-2–(2-methoxyphenyl)ethenyl]-4–(3-methoxyphenylthio)quinazoline]	8.17 ± 1.71	25.7 ± 2.29	0	39.3 ± 4.74	0	> 20	0	45.9 ± 2.63	53.5 ± 1.33	> 15	> 15	> 10	> 15	> 15	> 15	
COc1ccccc1/C=C/c1nc(Sc2ccc(SC)cc2)c2ccccc2n1 [IS9, 2-[(E)-2–(2-methoxyphenyl)ethenyl]-4-[4-(methylthio)phenylthio]quinazolin]	54	52 ± 3.43	19.3 ± 4.65	39.2 ± 6.47	57	> 25	60.7 ± 5.1	35.9 ± 7.23	28.7 ± 2.94	> 25	> 20	> 25	> 10	> 20	> 15	Inhibition of tyrosine kinase activity [%] Src (Src; 0.5 μM): 54.23 ± 3.07%; Inhibition of tyrosine kinase activity [%] Lyn B (Lyn B; 0.5 μM): 57.44 ± 1.76%
COc1ccc(/C=C/c2nc(Sc3cc4c(cc3Br)OCO4)c3ccccc3n2)c(OC)c1 [IS17, 5-{2-[(E)-2–(2,4-dimethoxyphenyl)ethenyl]quinazolin-4-ylthio}-6-bromo-2H-1,3-benzodioxole]	21 ± 1.82	19.8 ± 3.51	0	7.77 ± 3.16	0	21.3 ± 0.8	0	11.9 ± 2.86	9.58 ± 0.62	> 15	> 15	> 10	20.2 ± 0.9	> 15	> 15	Inhibition of tyrosine kinase activity [%] ABL (ABL): inactive
COc1ccccc1/C=C/c1nc(Sc2cc3c(cc2Br)OCO3)c2ccc(Cl)cc2n1 [IS15, 5-{2-[(E)-2–(2-methoxyphenyl)ethenyl]-7-chloroquinazolin-4-ylthio}-6-bromo-2H-1,3-benzodioxole]	53.4 ± 3.13	57.5 ± 4.04	27.2 ± 1.31	33.1 ± 1.19	32.3 ± 2.51	> 25	51.5 ± 4.55	41	39.3 ± 2.69	> 25	> 25	21.2 ± 2.19	> 25	> 25	> 25	Inhibition of tyrosine kinase activity [%] ABL (ABL): 41.81 ± 4.38%; IC50 (MCF-7): > 25 µM
